Patent US20220362168A1, “ADMINISTRATION REGIMES OF CANNABINOIDS IN COMBINATION WITH CHEMOTHERAPEUTICS AGAINST CANCER” (priority 2019, published 2022)
“Also recorded” adds a separate entry of the source.

How the values were obtained:
[1] = tested on: adenocarcinoma cancer cell line; assay: Cell viability by cell counting with trypan blue (Example 2); assay type: cell-based; details: 0.1, 1 or 10 μM, 48 h, FIG. 1
Source text: An adenocarcinoma cancer cell line, growing exponentially, was reset at a concentration of 1×10^4/ml and allowed to adhere overnight.

pERK = pERK western blotting relative to GAPDH (Example 3); assay type: cell-based; details: 100 nM, 1 μM or 10 μM, 48 h, FIG. 2, higher levels of CBD
Description: An adenocarcinoma cell line, growing exponentially, was reset at a concentration of 1×10^4/ml and allowed to adhere overnight. Cannabidiol (CBD) was added at 100 nM, 1 μM, or 10 μM, and cells were harvested for standard western blotting techniques after 48 h. Immunoprobing was performed using anti-pERK antibodies, and the densities of each band determined. These values were then expressed relative to a GAPDH loading control.

cancer patients = assay: Clinical outcome of 119 cancer patients given synthetic pharmaceutical-grade CBD; assay type: in vivo, human; details: for Extended median survival / Stable disease / Died / No effect/result / Slowed progression / Tumour free: number of patients
Description: Patients were given synthetic, pharmaceutical-grade CBD (STI Pharmaceuticals), registered under the Pharmaceutical Specials scheme in oily drops at 5% (w/v) in 20 ml bottles. Each drop contained 1 mg of synthetic CBD in neutral oil. This was prescribed on an informed consent basis. 119 cancer patients decided to have this treatment (Table 1), and most of them had metastatic cancers. Of the 119 patients, 28 were given CBD as the only treatment.
(§1) The majority of the patients were assessed using a circulating tumour cell test before and after treatment, since this is cheaper than carrying out repeated scans. A number of patients however, as a matter of a normal treatment course, had relevant scans.
The average dose was 10 mg twice a day. For increased tumour mass, the dose was increased, in some cases up to 30 drops twice a day (30 mg). In a number of cases where stable disease was present, the dose was reduced to five drops twice a day (5 mg). In some cases, Sativex, which is licensed for use in multiple sclerosis, was used in conjunction with CBD as a source of THC, which synergises with CBD. A fraction of the dose used for multiple sclerosis was used. […] Some of the patients reverted to Cannabis oil bought on the Internet, and following this, 80% of these cases relapsed.
(§2) The minimum duration of treatment required for CBD was six months, but many continued for longer. Less than six months appeared inadequate and had little effect, and therefore cases in which CBD was used for less than six months have been defined as un-assessable, and not included in the current cohort of 119 cases.

tumour = assay: Scans and examination of tumour in individual patients; assay type: in vivo, human
Description: as §1
Clear objective evidence of potential efficacy was sought where no other treatment option was available. The most impressive case was a patient with an anaplastic ependymoma, a very rare brain tumour. The patient had had all standard treatments, surgery on two occasions followed by chemotherapy and conformal photon radiotherapy. No further treatment options were available to them when treatment on CBD started.
Another impressive case was a patient with progressive tanycytic ependymoma Grade 2, treated with biopsy and radical radiotherapy for two years. They refused chemotherapy, and had no further treatment options. They started on pharmaceutical-grade synthetic CBD a year after radiotherapy ended, at a dose of 10 drops twice a day, three days on and three days off (10 mg). Prior to this they had been taking, for some time, metformin, mebendazole, doxycycline and atorvastatin from an oncology clinic in Central London.
At that point the patient stopped taking pharmaceutical-grade synthetic CBD and switched to Cannabis oil extract obtained from an internet website. […] They have since restarted pharmaceutical-grade synthetic CBD and throughout continued to take the metformin, atorvastatin, doxycycline and mebendazole. So, the only change had been stopping the pharmaceutical-grade synthetic CBD and switching to Cannabis oil extract obtained on the Internet.

[2] = tested on: circulating tumour cells (CTCs); assay: Circulating tumour cell test before and after treatment; assay type: in vivo, human; details: for Circulating tumour cells (CTCs): CBD only
Description: as §1

[3] = Side effects / tolerated dose in patients; assay type: in vivo, human; details: cancer patients, up to 30 mg twice a day; maximum tolerated dose unable to be defined
Source text: as §2

[4] = Glioblastoma multiforme, 7 total cases
[5] = Miscellaneous cancers, 15 total cases
[6] = Non-Hodgkin's lymphoma, 8 total cases
[7] = Non-small cell lung, 2 total cases
[8] = Total of all cancer types, 119 total cases

For `C=C(C)[C@@H]1CCC(C)=C[C@H]1c1c(O)cc(CCCCC)cc1O` [CBD, cannabidiol], the “Viability of cancer cells” value [1] was “inactive; also recorded: unaffected”, the “pERK relative to controls” value (pERK) was “increased” and the Clinical status (cancer patients; 62/female breast cancer, CBD only, no symptoms) was “currently stable”. For the same molecule, the Time to death (cancer patients; 65/female oesophageal cancer, CBD only treatment, expected survival of three months) was “weight. They died 14 months later”, the Clinical condition (cancer patients; 65/female oesophageal cancer, CBD only treatment, six months later, regained weight) was “treatments and investigations. We last saw their six months later when they were looking well and had in fact regained” and the Extended median survival (cancer patients; Anaplastic ependymoma, 3 total cases) was 3. It also gave an Extended median survival (cancer patients; Bladder, 2 total cases) of 1, a Stable disease (cancer patients; Bladder, 2 total cases) of 1 and a Died (cancer patients; Breast, 39 total cases) of 6. It also gave an Extended median survival (cancer patients; Breast, 39 total cases) of 8, a No effect/result (cancer patients; Breast, 39 total cases) of 3 and a Slowed progression (cancer patients; Breast, 39 total cases) of 3. For the same molecule, the Stable disease (cancer patients; Breast, 39 total cases) was 21, the Tumour free (cancer patients; Breast, 39 total cases) was 7 and the “Effect of short treatment duration” value (cancer patients; CBD used for less than six months) was “little effect”. The Died (cancer patients; Colorectal, 13 total cases) was 6, the Extended median survival (cancer patients; Colorectal, 13 total cases) was 9 and the No effect/result (cancer patients; Colorectal, 13 total cases) was 1. For the same molecule, the Slowed progression (cancer patients; Colorectal, 13 total cases) was 1, the Tumour free (cancer patients; Colorectal, 13 total cases) was 1 and the Extended median survival (cancer patients; DIPG, 1 total case) was 1. The Died (cancer patients; [4]) was 3, the Extended median survival (cancer patients; [4]) was 4 and the Tumour free (cancer patients; Head and Neck, 2 total cases) was 1. For the same molecule, the Died (cancer patients; [5]) was 1, the Extended median survival (cancer patients; [5]) was 5 and the No effect/result (cancer patients; [5]) was 1. For the same molecule, the Slowed progression (cancer patients; [5]) was 1, the Stable disease (cancer patients; [5]) was 6 and the Tumour free (cancer patients; [5]) was 2. It also gave a Stable disease (cancer patients; Neuroendocrine, 1 total case) of 1, a Died (cancer patients; [6]) of 1 and a Stable disease (cancer patients; [6]) of 6. For the same molecule, the Tumour free (cancer patients; [6]) was 1, the Died (cancer patients; [7]) was 2 and the Extended median survival (cancer patients; [7]) was 2. The Died (cancer patients; Ovarian, 6 total cases) was 3, the Extended median survival (cancer patients; Ovarian, 6 total cases) was 5 and the Slowed progression (cancer patients; Ovarian, 6 total cases) was 1. The Died (cancer patients; Pancreatic, 4 total cases) was 2, the Extended median survival (cancer patients; Pancreatic, 4 total cases) was 2 and the Died (cancer patients; Prostate, 16 total cases) was 3. The Extended median survival (cancer patients; Prostate, 16 total cases) was 3, the Stable disease (cancer patients; Prostate, 16 total cases) was 10 and the Died (cancer patients; [8]) was 27. It also gave an Extended median survival (cancer patients; [8]) of 43, a No effect/result (cancer patients; [8]) of 5 and a Slowed progression (cancer patients; [8]) of 8. The Stable disease (cancer patients; [8]) was 45, the Tumour free (cancer patients; [8]) was 12 and the “Clinical effectiveness of dosing pattern” value (cancer patients; three days on and three days off versus continuous dose) was “more effective”. For the same molecule, the “Tumour diameter in left breast” value (tumour; 65/female breast cancer, initially 15 cm, CBD plus half course of radiotherapy, last appointment) was “treatment course. They have continued on CBD alone and on their last appointment the tumour in their left breast was 2 cm”, the Axillary nodes (tumour; 65/female breast cancer, initially palpable left axillary nodes, last appointment) was “cm in diameter, with no palpable axillary nodes” and the Subsequent scans (tumour; 68/female breast cancer with bone metastases, CBD following local radiotherapy) was “subsequent scans showed stable disease. They have had no treatment other than CBD following radiotherapy”. The Subsequent scans (tumour; person, anaplastic ependymoma, CBD only treatment) was “disease stability”, the “Decrease of tumour volume (scan)” value (tumour; person, anaplastic ependymoma, CBD only treatment, after ten months) was about 60% and the Scan result (tumour; person, tanycytic ependymoma Grade 2, 10 mg twice a day three days on/off, six months) was “tumour reduction”. For the same molecule, the “Circulating tumour cells (CTCs), first tests” value ([2]; 62/female breast cancer, CBD as only treatment, when first seen) was “tests which showed 10.6 cells per 7.5 ml. Subsequent tests 9 months later, 12 months later, two years later and”, the “Circulating tumour cells (CTCs)” value ([2]; 62/female breast cancer, 9 months later) was 7.3 cells/7.5 ml and the “Circulating tumour cells (CTCs)” value ([2]; 62/female breast cancer, 12 months later) was 6.8 cells/7.5 ml. The “Circulating tumour cells (CTCs)” value ([2]; 67/female lobular breast cancer, 12 months later) was 7.5 cells/7.5 ml, the “Circulating tumour cells (CTCs)” value ([2]; 67/female lobular breast cancer, 18 months later) was 6.8 cells/7.5 ml and the “Circulating tumour cells (CTCs)” value ([2]; 67/female lobular breast cancer, 30 months later) was 3.0 cells/7.5 ml. For the same molecule, the “Circulating tumour cells (CTCs), initial” value ([2]; 67/female lobular breast cancer, initial) was “method of treatment. Initial CTCs were 9.3 cells per 7.5 ml. Follow-up measurements 12 months later, 18 months”, the “Circulating tumour cells (CTCs), initial” value ([2]; 72/male prostate cancer, initial value before CBD effect) was 8.1 cells/7.5 ml and the “Circulating tumour cells (CTCs)” value ([2]; breast cancer, three years later) was 3.9 cells/7.5 ml. The “Circulating tumour cells (CTCs)” value ([2]; breast cancer, two years later) was 5.0 cells/7.5 ml, the “Circulating tumour cells (CTCs), first reduction” value ([2]; patient prostate cancer, CBD alone 10 mg twice a day, three days on/off) was 5.9 cells/7.5 ml and the Side effects [3] was “complete absence of side effects”.
